Experimental data as given in patent US20220380347A1, “INHIBITORS OF CYSTEINE PROTEASES AND METHODS OF USE THEREOF” (Pardes Biosciences, Inc., priority 2020, published 2022).
pEC50, pIC50: −log10 of the molar value. Read-outs that look alike come from different tables or passages of the source.

Legend:
[1] = system: HCov OC43; assay: HCoV OC43 cytopathic effect (CPE) assay, CellTiter Glo; format: cell-based, human coronavirus (HCov) OC43
Experimental: Example 238: Evaluation of antiviral activity of compounds against human coronavirus (HCov) 229E and OC43 in the cytopathic effect (CPE) assays
Compounds were assayed using standard methods against multiple coronaviral strains, including HCoV 229E and OC43 strains. The antiviral activity of compounds was calculated based on the protection of the virus-induced CPE at each concentration normalized by the virus control.
Reference compound used was remdesivir; detection reagent: CellTiter Glo.) The CPE were measured by CellTiter Glo following the manufacturer's manual. The antiviral activity of compounds was calculated based on the protection of the virus-induced CPE at each concentration normalized by the virus control.
Cell viability was measured with CellTiter Glo.

[2] = target: 229E Mpro (Human coronavirus 229E, UniProt P0C6X1); assay: 229E Mpro enzymatic assay (standard methods, SARS-CoV2 Mpro assay given as exemplary); format: biochemical, human coronavirus (HCov) 229E
Experimental: Compounds were assayed using standard methods to assess compound activity and IC50. As an exemplary for assessment of the SARS-COV2 Mpro, the C-His6-tagged Mpro (NC_045512) was cloned, expressed in E. coli and purified. The assay buffer contained 20 mM of Tris-HCl (pH 7.3), 100 mM of NaCl, 1 mM of EDTA, 5 mM of TCEP and 0.1% BSA. The final concentrations of the Mpro protein and substrate were 25 nM and 25 μM, respectively, in the Mpro enzymatic assay. The Km of the Mpro substrate for the protease was 13.5 μM.
The compounds were added to an assay plate. […] For no inhibition control (ZPE, zero percent effect), no compound was added.
IC50 values of compounds were calculated with the GraphPad Prism software using the nonlinear regression model of log(inhibitor) vs. response—Variable slope (four parameters). The inhibition activity was calculated using the formula below, IC50 values is calculated using the Inhibition % data.
Inhibition %=[(Sample-Average ZPE)/(Average HPE-Average ZPE)]*100%^#

[3] = target: COVID-19 (nCoV-2019, SARS-CoV2) Mpro (Severe acute respiratory syndrome coronavirus 2, UniProt P0DTD1); assay: COVID-19 (nCoV-2019, SARS-CoV2) Mpro enzymatic assay; format: biochemical; conditions: 25 nM Mpro, 25 μM substrate; read-out: COVID-19 Mpro IC50
[4] = Betacoronavirus 1, OC43, read-out: OC43 IC50 (uM) MEDIAN, median
[5] = read-out: OC43 IC50 (uM) MEDIAN, median

Chain of 229E Mpro (P0C6X1 2966-3267): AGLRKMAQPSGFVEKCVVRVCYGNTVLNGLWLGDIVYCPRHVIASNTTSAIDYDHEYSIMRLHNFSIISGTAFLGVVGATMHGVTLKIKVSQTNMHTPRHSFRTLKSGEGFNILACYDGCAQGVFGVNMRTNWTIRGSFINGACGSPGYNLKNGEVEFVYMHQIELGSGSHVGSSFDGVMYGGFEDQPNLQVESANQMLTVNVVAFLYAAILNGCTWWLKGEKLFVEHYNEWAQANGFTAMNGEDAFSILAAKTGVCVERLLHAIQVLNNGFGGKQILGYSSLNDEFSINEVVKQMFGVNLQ

SMILES | IC50 [1, 4] [µM] | pEC50 ([2]; 229E Mpro EC50) | pIC50 [3] | IC50 [1, 5] [µM] | pEC50 ([2]; read-out: 229E Mpro EC50)
CC(C)(C)c1ccc(N(C(=O)[C@H]2C[C@@H](O)CN2C#N)C(C(=O)NC2CCCCC2)c2cncc(Cl)c2)cc1 (single isomer, unassigned) [675 Isomer 1] | < 2 | > 5.70 | > 5.70 |  | 
CC(C)(C)c1ccc(N(C(=O)[C@H]2C[C@@H](O)CN2C#N)C(C(=O)NC2CCCCC2)c2cncc(Cl)c2)cc1 (single isomer, unassigned) [675 Isomer 2] |  |  | 5.00 to 5.70 | 2 to 10 | > 5.70
N#CN1C[C@H](O)C[C@@H]1C(=O)N(c1ccc(C2(C(F)(F)F)CC2)cc1)C(C(=O)NC1CCCCC1)c1cccnc1 (single isomer, unassigned) [735 Isomer 1] | < 2 | > 5.70 | > 5.70 |  | 
N#CN1C[C@H](O)C[C@@H]1C(=O)N(c1ccc(C2(C(F)(F)F)CC2)cc1)C(C(=O)NC1CCCCC1)c1cccnc1 (single isomer, unassigned) [735 Isomer 2] |  |  | 5.00 to 5.70 | 2 to 10 | > 5.70
CC(C)(C)c1ccc(N(C(=O)C2CCC(F)(F)CN2C#N)C(C(=O)NC2CCCCC2)c2cccnc2)cc1 (single isomer, unassigned) [885 Isomer 1, N-(4-(tert-butyl)phenyl)-1-cyano-N-(2-(cyclohexylamino)-2-oxo-1-(pyridin-3-yl)ethyl)-5,5-difluoropiperidine-2-carboxamide] |  | 4.52 to 5.00 | < 4.52 | > 30 | 
CC(C)(C)c1ccc(N(C(=O)C2CCC(F)(F)CN2C#N)C(C(=O)NC2CCCCC2)c2cccnc2)cc1 (single isomer, unassigned) [885 Isomer 2, N-(4-(tert-butyl)phenyl)-1-cyano-N-(2-(cyclohexylamino)-2-oxo-1-(pyridin-3-yl)ethyl)-5,5-difluoropiperidine-2-carboxamide] |  | > 5.70 | > 5.70 | 2 to 10 | 
CC1(O)CN(C(=O)C(c2cccnc2)N(C(=O)[C@H]2CCCN2C#N)c2ccc(C(C)(C)C)cc2)C1 (single isomer, unassigned) [955 Isomer 1] |  | 5.00 to 5.70 | 5.00 to 5.70 | 2 to 10 | 
CC1(O)CN(C(=O)C(c2cccnc2)N(C(=O)[C@H]2CCCN2C#N)c2ccc(C(C)(C)C)cc2)C1 (single isomer, unassigned) [955 Isomer 2] |  |  | 4.52 to 5.00 | 10 to 30 | 5.00 to 5.70
CC1(C)CN(C#N)[C@@H](C(=O)N(c2ccc(S(F)(F)(F)(F)F)cc2)C(C(=O)NC2CCC(F)(F)CC2)c2cncc(F)c2)CO1 (single isomer, unassigned) [1086b Isomer 1] | < 2 | > 5.70 | > 5.70 |  | 
CC1(C)CN(C#N)[C@@H](C(=O)N(c2ccc(S(F)(F)(F)(F)F)cc2)C(C(=O)NC2CCC(F)(F)CC2)c2cncc(F)c2)CO1 (single isomer, unassigned) [1086b Isomer 2] |  |  | 5.00 to 5.70 | 2 to 10 | > 5.70
N#CN1CC(F)(F)C[C@@H]1C(=O)N(c1ccc(S(F)(F)(F)(F)F)cc1)C(C(=O)NC1CCC(F)(F)CC1)c1cccnc1 (single isomer, unassigned) [1087 Isomer 1] |  | > 5.70 | > 5.70 | < 2 | 
N#CN1CC(F)(F)C[C@@H]1C(=O)N(c1ccc(S(F)(F)(F)(F)F)cc1)C(C(=O)NC1CCC(F)(F)CC1)c1cccnc1 (single isomer, unassigned) [1087 Isomer 2] |  |  | 5.00 to 5.70 | > 30 | > 5.70
CC1(C)CCN(C#N)[C@H]1C(=O)N(c1ccc(S(F)(F)(F)(F)F)cc1)C(C(=O)NC1CCC(F)(F)CC1)c1cncc(F)c1 (single isomer, unassigned) [1094 Isomer 1] |  | > 5.70 | > 5.70 | < 2 | 
CC1(C)CCN(C#N)[C@H]1C(=O)N(c1ccc(S(F)(F)(F)(F)F)cc1)C(C(=O)NC1CCC(F)(F)CC1)c1cncc(F)c1 (single isomer, unassigned) [1094 Isomer 2] |  | 5.00 to 5.70 | 4.52 to 5.00 | 10 to 30 | 
N#CN1C[C@@H]2C[C@@H]2[C@@H]1C(=O)N(c1ccc(S(F)(F)(F)(F)F)cc1)C(C(=O)NC1CCC(F)(F)CC1)c1cncc(F)c1 (single isomer, unassigned) [1096 Isomer 1] | 2 to 10 | > 5.70 | 5.00 to 5.70 |  | 
N#CN1C[C@@H]2C[C@@H]2[C@@H]1C(=O)N(c1ccc(S(F)(F)(F)(F)F)cc1)C(C(=O)NC1CCC(F)(F)CC1)c1cncc(F)c1 (single isomer, unassigned) [1096 Isomer 2] |  |  | > 5.70 | < 2 | > 5.70
N#CN1C[C@@H]2CC[C@@H]2[C@@H]1C(=O)N(c1ccc(S(F)(F)(F)(F)F)cc1)C(C(=O)NC1CCC(F)(F)CC1)c1cncc(F)c1 (single isomer, unassigned) [1097 Isomer 1] | < 2 | > 5.70 | > 5.70 |  | 
N#CN1C[C@@H]2CC[C@@H]2[C@@H]1C(=O)N(c1ccc(S(F)(F)(F)(F)F)cc1)C(C(=O)NC1CCC(F)(F)CC1)c1cncc(F)c1 (single isomer, unassigned) [1097 Isomer 2] |  | 5.00 to 5.70 | 4.52 to 5.00 | 2 to 10 | 
N#C[C@H]1C[C@H](C(=O)N(c2ccc(S(F)(F)(F)(F)F)cc2)C(C(=O)NC2CCC(F)(F)CC2)c2cncc(F)c2)N(C#N)C1 (single isomer, unassigned) [1100 Isomer 1] | < 2 | > 5.70 | > 5.70 |  | 
N#C[C@H]1C[C@H](C(=O)N(c2ccc(S(F)(F)(F)(F)F)cc2)C(C(=O)NC2CCC(F)(F)CC2)c2cncc(F)c2)N(C#N)C1 (single isomer, unassigned) [1100 Isomer 2] |  |  | > 5.70 | < 2 | > 5.70
CS(=O)(=O)[C@H]1C[C@H](C(=O)N(c2ccc(S(F)(F)(F)(F)F)cc2)C(C(=O)NC2CCC(F)(F)CC2)c2cncc(F)c2)N(C#N)C1 (single isomer, unassigned) [1105 Isomer 1] | < 2 | > 5.70 | > 5.70 |  | 
CS(=O)(=O)[C@H]1C[C@H](C(=O)N(c2ccc(S(F)(F)(F)(F)F)cc2)C(C(=O)NC2CCC(F)(F)CC2)c2cncc(F)c2)N(C#N)C1 (single isomer, unassigned) [1105 Isomer 2] |  |  | > 5.70 | < 2 | > 5.70
CO[C@@H]1C[C@H](C(=O)N(c2ccc(S(F)(F)(F)(F)F)cc2)C(C(=O)N(C)CC(=O)NC2CC2)c2cccnc2)N(C#N)C1 (single isomer, unassigned) [1122 Isomer 1] |  |  | > 5.70 | < 2 | > 5.70
CO[C@@H]1C[C@H](C(=O)N(c2ccc(S(F)(F)(F)(F)F)cc2)C(C(=O)N(C)CC(=O)NC2CC2)c2cccnc2)N(C#N)C1 (single isomer, unassigned) [1122 Isomer 2] |  |  | 4.52 to 5.00 | 2 to 10 | > 5.70
CC1(C)CN(C#N)[C@@H](C(=O)N(c2ccc(C(C)(C)C)cc2)C(C(=O)NC2CCOCC2)c2cccnc2)CO1 (single isomer, unassigned) [1141 Isomer 1] |  | 4.52 to 5.00 | 5.00 to 5.70 | 2 to 10 | 
CC1(C)CN(C#N)[C@@H](C(=O)N(c2ccc(C(C)(C)C)cc2)C(C(=O)NC2CCOCC2)c2cccnc2)CO1 (single isomer, unassigned) [1141 Isomer 2] |  | > 5.70 | > 5.70 | 2 to 10 | 
CC1(C)CN(C#N)[C@@H](C(=O)N(c2ccc(C(C)(C)C)cc2)C(C(=O)NC2CCOCC2)c2cccnc2)CO1 (single isomer, unassigned) [1141 Isomer 3] |  | 4.52 to 5.00 | < 4.52 | > 30 | 
